Results on 26 compounds are retold here after ChEMBL document CHEMBL5346914, “Optimization of carbazole carboxamide RORγt agonists: Challenges in improving the metabolic stability and maintaining the agonistic activity” (Eur J Med Chem, 2023).

In the first data set the target is T1, Nuclear receptor ROR-gamma (Homo sapiens, UniProt P51449).
T1 sequence (P51449 whole entry): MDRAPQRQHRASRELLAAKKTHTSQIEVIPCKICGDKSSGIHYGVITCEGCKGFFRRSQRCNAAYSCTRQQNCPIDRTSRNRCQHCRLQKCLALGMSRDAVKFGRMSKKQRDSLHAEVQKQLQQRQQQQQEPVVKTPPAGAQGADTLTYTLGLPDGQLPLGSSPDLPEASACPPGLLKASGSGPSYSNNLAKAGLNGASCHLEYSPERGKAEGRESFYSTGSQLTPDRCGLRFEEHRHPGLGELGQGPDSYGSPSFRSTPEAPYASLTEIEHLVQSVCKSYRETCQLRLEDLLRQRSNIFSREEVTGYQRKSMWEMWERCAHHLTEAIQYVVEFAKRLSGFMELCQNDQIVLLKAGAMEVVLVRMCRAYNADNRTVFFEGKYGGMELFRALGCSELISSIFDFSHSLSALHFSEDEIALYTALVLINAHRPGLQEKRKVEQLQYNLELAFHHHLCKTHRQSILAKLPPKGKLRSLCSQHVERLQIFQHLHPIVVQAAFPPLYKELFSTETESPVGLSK
Description: Agonist activity at human RORgammat LBD (265 to 507 residues) expressed in Escherichia coli BL21(DE3) cells incubated for 1 hr FRET assay.
Settings: not given
Regarding `CCn1c2ccc(OC(C)C)cc2c2cc(C(=O)NCc3ccc(S(C)(=O)=O)cc3)ccc21`, the midpoint of the response, the EC50, lay at 0.0121 µM.

Compound `CCS(=O)(=O)c1ccc(C(COC)NC(=O)c2ccc3c(c2)c2cc(CC4CC4)ccc2n3CCF)cc1` (racemic) came in with an EC50 of 0.0283 µM. `CCn1c2ccc(CC3CC3)cc2c2cc(C(=O)NC(CO)c3ccc(S(=O)(=O)CC)cc3)ccc21` (racemic): the EC50 came out at 0.0147 µM.

`CCn1c2ccc(OC(C)C)cc2c2cc(C(=O)NCc3ccc(S(=O)(=O)CC)cn3)ccc21` yielded a half-maximal effective concentration (EC50) of 0.0056 µM. The compound `CCn1c2ccc(CN(C)C)cc2c2cc(C(=O)NCc3ccc(S(=O)(=O)CC)cc3)ccc21` returned an EC50 of 0.181 µM. On to `CCS(=O)(=O)c1ccc(CNC(=O)c2ccc3c(c2)c2cc(CC4CC4)ccc2n3CCF)cc1`, for which the EC50 stood at 0.0157 µM. For the compound `CCn1c2ccc(C(=O)NCc3ccc(S(=O)(=O)CC)cc3)cc2c2c(OC(C)C)cccc21`, the EC50 came out at 0.0294 µM.

In the case of `CCn1c2ccc(CC3CCC3)cc2c2cc(C(=O)NCc3ccc(S(=O)(=O)CC)cc3)ccc21`, the midpoint of the response, the EC50, lay at 0.0126 µM.

In the case of `CCn1c2ccc(CC(C)(C)F)cc2c2cc(C(=O)NCc3ccc(S(=O)(=O)CC)cc3)ccc21`, the EC50 was 0.0103 µM. In turn, `CCn1c2ccc(CC(C)C)cc2c2cc(C(=O)NCc3ccc(S(=O)(=O)CC)cc3)ccc21` returned an EC50 of 0.0109 µM.

As to `CCn1c2ccc(CC3CC3)cc2c2cc(C(=O)NCc3ccc(S(=O)(=O)CC)cn3)ccc21`, a half-maximal effect (EC50) was put at 0.0097 µM. `CCS(=O)(=O)c1ccc(CNC(=O)c2ccc3c(c2)c2cc(OC(C)C)ccc2n3CCF)cc1` came in with an EC50 of 0.0078 µM. In turn, `CCn1c2ccc(CC3CC3)cc2c2cc(C(=O)NCc3ccc(S(C)(=O)=O)cn3)ccc21` displayed an EC50 of 0.0125 µM.

In a further data set the target is T1, Nuclear receptor ROR-gamma. The experiment in a line: Agonist activity at Gal4-fused human RORgammat LBD expressed in HEK293T cells assessed as luciferase activity incubated for 16 to 20 hrs by luciferase reporter gene assay.
Settings: not given
It counts as cell-based.
As for `CCS(=O)(=O)c1ccc(C(COC)NC(=O)c2ccc3c(c2)c2cc(CC4CC4)ccc2n3CCF)cc1` (racemic), the EC50 came out at 0.348 µM. Take `CCS(=O)(=O)c1ccc(CNC(=O)c2ccc3c(c2)c2cc(CC4CC4)ccc2n3CCF)cc1`: the EC50 worked out at 0.245 µM.

Another data set addresses T1, Nuclear receptor ROR-gamma. Description: Inverse agonist activity at human RORgammat LBD (265 to 507 residues) expressed in Escherichia coli BL21(DE3) cells incubated for 1 hr FRET assay.
Settings: not given
For `CCn1c2ccc(CC3COC3)cc2c2cc(C(=O)NCc3ccc(S(=O)(=O)CC)cc3)ccc21`, the IC50 is 6.59 µM.

System in the next data set: not listed separately
The experiment in a line: Microsomal stability in mouse liver microsome assessed as half life at 1 uM preincubated for 10 mins followed by NADPH addition measured upto 60 mins by HPLC-MS/MS analysis. It counts as ADME. Particulars: liver microsomes, time < 70 min.
For `CCn1c2ccc(OC3CC3)cc2c2cc(C(=O)NCc3ccc(S(=O)(=O)CC)cc3)ccc21`, the half-life at 1 µM worked out at 16.5 min. The same measure, in the same setting: under `CCn1c2ccc(CC(C)C(F)(F)F)cc2c2cc(C(=O)NCc3ccc(S(=O)(=O)CC)cc3)ccc21` (stereo unspecified) stands 26.2 min.

With `CCn1c2ccc(OC(C)C)cc2c2cc(C(=O)NCc3ccc(S(C)(=O)=O)cc3)ccc21`, the half-life at 1 µM worked out at 14.8 min.

In the case of `CCn1c2ccc(CC3CC3)cc2c2cc(C(=O)N[C@H](COC)c3ccc(S(=O)(=O)CC)cc3)ccc21`, the half-life at 1 µM came to 40.8 min. `CCn1c2ccc(CC3CC3)cc2c2cc(C(=O)NC(COC)c3ccc(S(=O)(=O)CC)cc3)ccc21` (racemic): the half-life at 1 µM was > 145 min. With `CCn1c2ccc(CC3CC3)cc2c2cc(C(=O)NCc3ccc(S(=O)(=O)CC)cc3)ccc21`, the half-life at 1 µM was found to be 48.8 min. Consider `CCS(=O)(=O)c1ccc(C(COC)NC(=O)c2ccc3c(c2)c2cc(CC4CC4)ccc2n3CCF)cc1` (racemic), for which the half-life at 1 µM stood at 37.1 min. Still for that read-out and setting: the result for `CCn1c2ccc(OC(C)C)cc2c2cc(C(=O)NC(CO)c3ccc(S(=O)(=O)CC)cc3)ccc21` (racemic) reads 17.9 min; that for `CCn1c2ccc(CC3CC3)cc2c2cc(C(=O)NC(CO)c3ccc(S(=O)(=O)CC)cc3)ccc21` (racemic), 41.4 min.

For the compound `CCn1c2ccc(OC(C)C)cc2c2cc(C(=O)NCc3ccc(S(=O)(=O)CC)cn3)ccc21`, the half-life at 1 µM was 18.2 min. For the compound `CCS(=O)(=O)c1ccc(CNC(=O)c2ccc3c(c2)c2cc(CC4CC4)ccc2n3CCF)cc1`, the half-life at 1 µM was determined as 80.4 min. Still for that read-out and setting: under `CCn1c2ccc(CC(C)(C)F)cc2c2cc(C(=O)NCc3ccc(S(=O)(=O)CC)cc3)ccc21` stands 20.8 min; under `CCn1c2ccc(CC(C)C)cc2c2cc(C(=O)NCc3ccc(S(=O)(=O)CC)cc3)ccc21`, 26.9 min; under `CCn1c2ccc(OC3CCC3)cc2c2cc(C(=O)NCc3ccc(S(=O)(=O)CC)cc3)ccc21`, 16.4 min. On to `CCn1c2ccc(OC(C)C)cc2c2cc(C(=O)NCc3ccc(S(=O)(=O)CC)cc3)ccc21`, for which the half-life at 1 µM worked out at 8.7 min.

With `CCn1c2ccc(OC(C)C)cc2c2cc(C(=O)NCc3ccc(S(C)(=O)=O)cn3)ccc21`, the half-life at 1 µM was found to be 17 min. Still for that read-out and setting: under `CCn1c2ccc(CC3CC3)cc2c2cc(C(=O)N[C@@H](COC)c3ccc(S(=O)(=O)CC)cc3)ccc21` stands > 154 min; under `CCS(=O)(=O)c1ccc(CNC(=O)c2ccc3c(c2)c2cc(OC(C)C)ccc2n3CCF)cc1`, 14.1 min; under `CCn1c2ccc(OCC(C)C)cc2c2cc(C(=O)NCc3ccc(S(=O)(=O)CC)cc3)ccc21`, 20.4 min.

With `CCn1c2ccc(OC(C)C(F)(F)F)cc2c2cc(C(=O)NCc3ccc(S(=O)(=O)CC)cc3)ccc21` (stereo unspecified), the half-life at 1 µM came out at 19.9 min.
